Assay results: patent US20160122342A1, “ENHANCER OF ZESTE HOMOLOG 2 INHIBITORS” (GLAXOSMITHKLINE INTELLECTUAL PROPERTY (NO.2) LIMITED, priority 2013, published 2016)
Where a name gives a salt, the structure may show the parent alone.

biological target: T1, EZH2 within the PRC2 complex (Homo sapiens, UniProt Q15910); test: Assay Protocol 2: EZH2 methyltransferase scintillation proximity assay, biotinylated histone H3 peptide substrate; assay type: biochemical; conditions: SPA, 3H-SAM, biotinylated unmethylated histone H3K27 peptide substrate, 5-member PRC2 complex
T1 construct: FLAG; made in house; host or cells: Sf9 cells
T1 sequence (Q15910 whole entry): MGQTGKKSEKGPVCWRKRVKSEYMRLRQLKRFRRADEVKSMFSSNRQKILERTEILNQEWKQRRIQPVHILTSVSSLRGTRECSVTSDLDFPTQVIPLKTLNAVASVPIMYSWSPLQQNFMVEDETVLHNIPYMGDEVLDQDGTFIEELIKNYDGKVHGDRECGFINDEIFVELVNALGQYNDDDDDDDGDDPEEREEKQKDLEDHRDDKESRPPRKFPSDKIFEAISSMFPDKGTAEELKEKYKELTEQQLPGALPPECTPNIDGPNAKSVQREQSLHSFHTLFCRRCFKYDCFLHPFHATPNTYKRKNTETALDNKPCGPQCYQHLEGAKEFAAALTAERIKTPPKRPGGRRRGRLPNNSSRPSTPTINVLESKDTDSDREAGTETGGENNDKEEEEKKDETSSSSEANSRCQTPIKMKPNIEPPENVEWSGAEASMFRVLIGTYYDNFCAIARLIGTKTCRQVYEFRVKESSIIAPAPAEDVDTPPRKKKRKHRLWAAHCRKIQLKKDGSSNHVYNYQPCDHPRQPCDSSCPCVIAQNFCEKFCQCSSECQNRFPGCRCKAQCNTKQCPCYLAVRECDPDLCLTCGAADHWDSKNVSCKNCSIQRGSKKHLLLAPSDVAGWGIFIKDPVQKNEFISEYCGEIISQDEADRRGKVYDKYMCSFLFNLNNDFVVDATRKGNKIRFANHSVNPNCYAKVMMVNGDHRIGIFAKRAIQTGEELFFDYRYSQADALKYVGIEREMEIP
T1 sequence (O75530 whole entry partner): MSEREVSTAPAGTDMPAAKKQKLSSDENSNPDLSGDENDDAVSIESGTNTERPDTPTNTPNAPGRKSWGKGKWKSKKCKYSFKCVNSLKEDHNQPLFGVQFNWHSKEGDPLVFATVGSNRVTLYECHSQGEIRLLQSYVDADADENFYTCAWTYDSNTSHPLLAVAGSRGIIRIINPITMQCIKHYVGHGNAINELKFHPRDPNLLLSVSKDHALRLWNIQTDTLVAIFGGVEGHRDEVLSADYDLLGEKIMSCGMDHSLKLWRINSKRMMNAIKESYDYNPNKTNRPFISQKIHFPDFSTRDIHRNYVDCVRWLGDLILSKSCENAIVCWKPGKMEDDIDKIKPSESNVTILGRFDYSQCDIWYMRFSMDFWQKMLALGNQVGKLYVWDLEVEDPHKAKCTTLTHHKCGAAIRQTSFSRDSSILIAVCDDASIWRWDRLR
T1 sequence (Q15022 whole entry partner): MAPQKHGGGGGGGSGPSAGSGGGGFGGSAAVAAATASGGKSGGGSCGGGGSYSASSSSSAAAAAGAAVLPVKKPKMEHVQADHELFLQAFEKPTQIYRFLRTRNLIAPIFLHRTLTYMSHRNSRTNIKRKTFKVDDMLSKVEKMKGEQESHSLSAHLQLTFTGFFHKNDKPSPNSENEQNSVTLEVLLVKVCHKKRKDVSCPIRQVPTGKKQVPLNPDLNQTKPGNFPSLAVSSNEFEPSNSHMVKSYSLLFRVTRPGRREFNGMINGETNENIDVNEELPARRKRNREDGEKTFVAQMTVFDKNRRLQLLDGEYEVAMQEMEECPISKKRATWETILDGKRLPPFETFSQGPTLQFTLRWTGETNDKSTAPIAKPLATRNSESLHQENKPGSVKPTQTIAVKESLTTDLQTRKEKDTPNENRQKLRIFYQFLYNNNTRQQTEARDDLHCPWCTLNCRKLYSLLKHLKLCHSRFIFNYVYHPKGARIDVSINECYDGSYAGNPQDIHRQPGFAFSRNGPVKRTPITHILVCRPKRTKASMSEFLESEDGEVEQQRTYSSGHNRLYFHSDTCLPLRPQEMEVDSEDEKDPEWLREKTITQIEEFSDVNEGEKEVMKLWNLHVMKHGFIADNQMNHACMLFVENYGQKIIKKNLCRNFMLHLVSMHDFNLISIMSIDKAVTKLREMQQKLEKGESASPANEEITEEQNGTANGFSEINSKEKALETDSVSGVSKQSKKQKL
T1 sequence (Q09028 whole entry partner): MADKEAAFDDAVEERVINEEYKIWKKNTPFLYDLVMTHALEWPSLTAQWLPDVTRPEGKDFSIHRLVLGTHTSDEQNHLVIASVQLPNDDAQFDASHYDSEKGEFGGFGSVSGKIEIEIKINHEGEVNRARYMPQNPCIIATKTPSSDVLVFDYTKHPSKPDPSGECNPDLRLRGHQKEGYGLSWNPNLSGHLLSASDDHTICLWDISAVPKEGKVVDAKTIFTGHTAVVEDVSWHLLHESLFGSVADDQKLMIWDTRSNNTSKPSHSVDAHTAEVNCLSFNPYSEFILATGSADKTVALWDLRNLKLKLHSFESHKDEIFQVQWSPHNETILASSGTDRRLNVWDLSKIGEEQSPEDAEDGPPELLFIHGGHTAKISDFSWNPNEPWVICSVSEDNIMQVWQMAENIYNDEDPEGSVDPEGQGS
T1 sequence (Q6ZN18 whole entry partner): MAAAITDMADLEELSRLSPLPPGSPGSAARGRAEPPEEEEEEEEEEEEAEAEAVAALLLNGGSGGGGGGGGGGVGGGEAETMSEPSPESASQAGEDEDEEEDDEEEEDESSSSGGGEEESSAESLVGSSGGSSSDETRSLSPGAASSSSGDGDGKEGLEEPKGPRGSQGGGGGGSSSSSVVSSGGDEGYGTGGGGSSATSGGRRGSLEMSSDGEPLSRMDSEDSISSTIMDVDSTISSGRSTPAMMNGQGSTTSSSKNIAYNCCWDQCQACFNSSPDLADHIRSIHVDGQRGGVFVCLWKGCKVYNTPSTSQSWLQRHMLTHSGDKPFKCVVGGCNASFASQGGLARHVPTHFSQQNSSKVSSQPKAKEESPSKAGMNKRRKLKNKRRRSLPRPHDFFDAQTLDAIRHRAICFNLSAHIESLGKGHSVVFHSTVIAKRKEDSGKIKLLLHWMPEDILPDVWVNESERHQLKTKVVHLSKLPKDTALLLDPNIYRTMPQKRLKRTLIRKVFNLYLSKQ
Method: Compounds contained herein were evaluated for their ability to inhibit the methyltransferase activity of EZH2 within the PRC2 complex. […] The peptides were captured on streptavidin-coated SPA beads and the resulting signal was read on a ViewLux plate reader. • 4. Prepare 10 mM stock of compounds from solid in 100% DMSO. • 5. […] Dispense 10 nL of compound from the dilution plate into reaction plates (Corning, 384-well polystyrene NBS, Cat#3673). Prepare the following solutions: • 7. 1× Base Buffer, 50 mM Tris-HCl, pH 8, 2 mM MgCl2: Per 1 L of base buffer, combine 1 M Tris-HCl, pH 8 (50 mL), 1 M MgCl2 (2 mL), and distilled water (948 mL). • 8. 1× Assay Buffer: Per 10 mL of 1× Assay Buffer, combine 1× Base Buffer (9.96 mL), 1 M DTT (40 uL), and 10% Tween-20 (1 uL) to provide a final concentration of 50 mM Tris-HCl, pH 8, 2 mM MgCl2, 4 mM DTT, 0.001% Tween-20. • 9. 2× Enzyme Solution: […] SPA Bead Solution: Per 1 mL of SPA Bead Solution, combine Streptavidin coated SPA beads (PerkinElmer, Cat# RPNQ0261, 40 mg) and 1× Assay Buffer (1 mL) to provide a working concentration of 40 mg/mL. • 11. 2× Substrate Solution: Per 10 mL of 2× Substrate Solution, combine 40 mg/mL SPA Bead Solution (375 uL), 1 mM biotinylated histone H3K27 peptide (200 uL), 12.5 uM 3H-SAM (240 uL; 1 mCi/mL), 1 mM cold SAM (57 uL), and 1× Assay Buffer (9.13 mL) to provide a final concentration of 0.75 mg/mL SPA Bead Solution, 10 uM biotinylated histone H3K27 peptide, 0.15 uM 3H-SAM (˜12 uCi/mL 3H-SAM), and 2.85 uM cold SAM. • 12. 2.67× Quench Solution: Per 10 mL of 2.67× Quench Solution, combine 1× Assay Buffer (9.73 mL) and 10 mM cold SAM (267 uL) to provide a final concentration of 100 uM cold SAM. • 3. […] Dispense 5 uL/well of 1× Assay Buffer to column 18 (low control reactions). • 11. Dispense 5 uL/well of 2× Substrate Solution to columns 1-24 (note: substrate solution should be mixed to ensure homogeneous bead suspension before dispensing into matrix reservoir). • 12. Dispense 5 uL/well of 2× Enzyme Solution to columns 1-17, 19-24. • 13. Incubate the reaction for 60 min at room temperature. • 5. Dispense 6 uL/well of the 2.67× Quench Solution to columns 1-24. • 6. Seal assay plates and spin for ˜1 min at 500 rpm. • 7. Dark adapt plates in the ViewLux instrument for 15-60 min. • 2. Read the assay plates on the Viewlux Plate Reader utilizing the 613 nm emission filter or clear filter (300 s exposure). Reagent addition can be done manually or with automated liquid handler. Percent inhibition was calculated relative to the DMSO control for each compound concentration and the resulting values were fit using standard IC50 fitting parameters within the ABASE data fitting software package.

Compound	IC50 [nM]
CCN(c1cccc2c1C/C=C/CCc1cc(C)[nH]c(=O)c1CNC2=O)C1CC2(CCN(C)CC2)C1 [Example 69, (E)-10-(ethyl(7-methyl-7-azaspiro[3.5]nonan-2-yl)amino)-3-methyl-5,6,15,16-tetrahydrobenzo[c]pyrido[4,3-j][1]azacyclododecine-1,14(2H,9H)-dione]	158
CCN(c1cccc2c1C/C=C/CCc1cc(C)[nH]c(=O)c1CNC2=O)C1CC2(CC(N)C2)C1 (stereo not drawn) [Example 70, (E)-10-((6-aminospiro[3.3]heptan-2-yl)(ethyl)amino)-3-methyl-5,6,15,16-tetrahydrobenzo[c]pyrido[4,3-j][1]azacyclododecine-1,14(2H,9H)-dione]	126
CCN(c1cccc2c1C/C=C/CCc1cc(C)[nH]c(=O)c1CNC2=O)C1CC2(CC(N(C)C)C2)C1 (stereo not drawn) [Example 71, (E)-10-((6-(dimethylamino)spiro[3.3]heptan-2-yl)(ethyl)amino)-3-methyl-5,6,15,16-tetrahydrobenzo[c]pyrido[4,3-j][1]azacyclododecine-1,14(2H,9H)-dione]	251
CCN(c1cccc2c1C/C=C/CCc1cc(C)[nH]c(=O)c1CNC2=O)C1CC2(C1)CN(C)C2 [Example 72, (E)-10-(ethyl(2-methyl-2-azaspiro[3.3]heptan-6-yl)amino)-3-methyl-5,6,15,16-tetrahydrobenzo[c]pyrido[4,3-j][1]azacyclododecine-1,14(2H,9H)-dione]	79
CCN(c1cccc2c1C/C=C/CCc1cc(C)[nH]c(=O)c1CNC2=O)[C@H]1CC[C@H](NC)CC1 [Example 73, (E)-10-(ethyl(trans-4-(methylamino)cyclohexyl)amino)-3-methyl-5,6,15,16-tetrahydrobenzo[c]pyrido[4,3-j][1]azacyclododecine-1,14(2H,9H)-dione formic acid salt]	126
CCN(c1cccc2c1C/C=C/CCc1cc(C)[nH]c(=O)c1CNC2=O)[C@H]1CC[C@@H](NC)CC1 [Example 74, (E)-10-(ethyl(cis-4-(methylamino)cyclohexyl)amino)-3-methyl-5,6,15,16-tetrahydrobenzo[c]pyrido[4,3-j][1]azacyclododecine-1,14(2H,9H)-dione formic acid salt]	158
CCN(c1cccc2c1C/C=C/CCc1cc(C)[nH]c(=O)c1CNC2=O)[C@H]1CC[C@@H](N2CC(F)C2)CC1 [Example 75, (E)-10-(ethyl(cis-4-(3-fluoroazetidin-1-yl)cyclohexyl)amino)-3-methyl-5,6,15,16-tetrahydrobenzo[c]pyrido[4,3-j][1]azacyclododecine-1,14(2H,9H)-dione]	251
CCN(c1cccc2c1C/C=C/CCc1cc(C)[nH]c(=O)c1CNC2=O)[C@H]1CC[C@H](N2CC(F)C2)CC1 [Example 76, (E)-10-(ethyl(trans-4-(3-fluoroazetidin-1-yl)cyclohexyl)amino)-3-methyl-5,6,15,16-tetrahydrobenzo[c]pyrido[4,3-j][1]azacyclododecine-1,14(2H,9H)-dione]	126
CCN(c1cccc2c1C/C=C/CCc1cc(C)[nH]c(=O)c1CNC2=O)C1CCCNCC1 (stereo not drawn) [Example 77, (E)-10-(azepan-4-yl(ethyl)amino)-3-methyl-5,6,15,16-tetrahydrobenzo[c]pyrido[4,3-j][1]azacyclododecine-1,14(2H,9H)-dione]	158
CCN(c1cccc2c1C/C=C/CCc1cc(C)[nH]c(=O)c1CNC2=O)[C@H]1CC[C@@H](O)CC1 [Example 78, (E)-10-(ethyl(cis-4-hydroxycyclohexyl)amino)-3-methyl-5,6,15,16-tetrahydrobenzo[c]pyrido[4,3-j][1]azacyclododecine-1,14(2H,9H)-dione]	158
CCN(c1cccc2c1C/C=C/CCc1cc(C)[nH]c(=O)c1CNC2=O)[C@H]1CC[C@H](O)CC1 [Example 79, (E)-10-(ethyl(trans-4-hydroxycyclohexyl)amino)-3-methyl-5,6,15,16-tetrahydrobenzo[c]pyrido[4,3-j][1]azacyclododecine-1,14(2H,9H)-dione]	126
CCN(c1cccc2c1C/C=C/CCc1cc(C)[nH]c(=O)c1CNC2=O)[C@H]1CC[C@@H](N2CC(F)(F)C2)CC1 [Example 80, (E)-10-((cis-4-(3,3-difluoroazetidin-1-yl)cyclohexyl)(ethyl)amino)-3-methyl-5,6,15,16-tetrahydrobenzo[c]pyrido[4,3-j][1]azacyclododecine-1,14(2H,9H)-dione]	200
CCN(c1cccc2c1C/C=C/CCc1cc(C)[nH]c(=O)c1CNC2=O)[C@H]1CC[C@H](N2CC(F)(F)C2)CC1 [Example 81, (E)-10-((trans-4-(3,3-difluoroazetidin-1-yl)cyclohexyl)(ethyl)amino)-3-methyl-5,6,15,16-tetrahydrobenzo[c]pyrido[4,3-j][1]azacyclododecine-1,14(2H,9H)-dione]	200
CCN(c1cccc2c1C/C=C/CCc1cc(C)[nH]c(=O)c1CNC2=O)[C@H]1CC[C@@H](NCCC(F)(F)F)CC1 [Example 82, (E)-10-(ethyl(cis-4-((3,3,3-trifluoropropyl)amino)cyclohexyl)amino)-3-methyl-5,6,15,16-tetrahydrobenzo[c]pyrido[4,3-j][1]azacyclododecine-1,14(2H,9H)-dione]	251
CCN(c1cccc2c1C/C=C/CCc1cc(C)[nH]c(=O)c1CNC2=O)[C@H]1CC[C@H](NCCC(F)(F)F)CC1 [Example 83, (E)-10-(ethyl(trans-4-((3,3,3-trifluoropropyl)amino)cyclohexyl)amino)-3-methyl-5,6,15,16-tetrahydrobenzo[c]pyrido[4,3-j][1]azacyclododecine-1,14(2H,9H)-dione]	158
Cc1cc2c(c(=O)[nH]1)CNC(=O)c1cccc(O[C@H]3CC[C@H](N(C)C)CC3)c1C/C=C/CC2 [Example 84, (E)-10-((trans-4-(dimethylamino)cyclohexyl)oxy)-3-methyl-5,6,15,16-tetrahydrobenzo[c]pyrido[4,3-j][1]azacyclododecine-1,14(2H,9H)-dione]	200
Cc1cc2c(c(=O)[nH]1)CNC(=O)c1cccc(O[C@H]3CC[C@H](N(C)C)CC3)c1C/C=C\CC2 [Example 85, (Z)-10-((trans-4-(dimethylamino)cyclohexyl)oxy)-3-methyl-5,6,15,16-tetrahydrobenzo[c]pyrido[4,3-j][1]azacyclododecine-1,14(2H,9H)-dione]	5010
CCN(c1cccc2c1C/C=C/CCc1cc(C)[nH]c(=O)c1CNC2=O)[C@H]1CC[C@@H](N2CCOCC2)CC1 [Example 86, (E)-10-(ethyl(cis-4-morpholinocyclohexyl)amino)-3-methyl-5,6,15,16-tetrahydrobenzo[c]pyrido[4,3-j][1]azacyclododecine-1,14(2H,9H)-dione]	200
